Measurements reported in publication PMC8661510, “Computational study, synthesis and evaluation of active peptides derived from Parasporin-2 and spike protein from Alphacoronavirus against colorectal cancer cells” (Bioscience Reports, 2021).
Like-named read-outs stand apart in the source and are kept apart here. No end group written: not given here.

Legend:
[1] = system: SW480 cells; conditions: for EC50: 48 h; for percentage of viability SW480 cells: human, 150 µM
[2] = system: SW620 cells; conditions: for EC50: 48 h; for percentage of cell viability SW620 cells: human, 150 µM
[3] = Hemolytic activity assay; type: cell-based; conditions: human, erythrocytes; 150 μM peptide; relative to 0.1% Triton X-100; read-out: %HC50 at 150 μM (percentage of hemolysis)
[4] = system: SW620 cells; test: cells; conditions: Homo sapiens, SW-620, 48 h
[5] = system: SW620 cells; test: Annexin V-Cy3/6-CFDA staining, SW620; type: cell-based, Human; conditions: EC50 concentration, 24 and 48 h
Procedure: (§1) The presence of phosphatidylserine at the cell surface was detected by phosphatidylserine binding protein annexin V conjugated with Cy3 using the commercially available Annexin V-Cy3 apoptosis detection kit (APOAC, Apoptosis Detection Kit, Sigma). […] The PBS and binding buffer were used to wash the adherent cells and the washed cell adherents were suspended in 50 µl of Ann-Cy3 and 6-CFDA. Then, the plates were incubated for 10 min in the dark. Afterwards, the excess label was removed by washing the cells with binding buffer. EVOS M7000 digital inverted fluorescence microscope (ThermoFisher Scientific; Waltham, MA, U.S.A.) was used to observe Ann-Cy3 and 6-CFDA-labeled cells. This assay allowed one to differentiate live cells (green), necrotic cells (red), and apoptotic cells (red nuclei and green cytoplasm). The percentage of cells reflecting apoptotic and necrotic cells was manually calculated. Data were collected for three replicates and used to calculate the respective means and standard deviations.

[6] = system: SW480 cells; test: cells; conditions: Homo sapiens, SW480, 48 h
[7] = system: SW480 cells; test: Annexin V-Cy3/6-CFDA staining, SW480; type: cell-based, Human; conditions: EC50 concentration, 24 and 48 h
Procedure: as §1

Row | Compound | EC50 [1] | percentage of viability SW480 cells [1] | EC50 [2] | percentage of cell viability SW620 cells [2] | hemolysis at 150 μM [3] | EC50 ([4]; read-out: EC50 SW620) | viability at 150 µM ([4]; read-out: percentage of cell viability SW620 cells) | Annexin V-Cy3/6-CFDA staining result [5] | EC50 ([6]; read-out: EC50 SW480) | viability at 150 µM ([6]; read-out: percentage of viability SW480 cells) | Annexin V-Cy3/6-CFDA staining result [7]
1 | FKPQSGGGKCF-NH2 [Loop1-HCoV-229E, FKPQSGGGKCF-NH2] | 125 ± 1.32 µM | 56.2% | > 150 µM | 55.2% | 9.2% |  |  |  |  |  | 
2 | O=c1[nH]cc(F)c(=O)[nH]1 [5-FU, 5-Fluorouracil] |  |  |  |  |  | 11.9 ± 1.2 µM | 2.8% | Same results | 24.4 ± 0.82 µM | 18.9% | Same results
3 | H-FLGWLFKVASK-NH2 [A4W-GGN5, FLGWLFKVASK-NH2, reference compound] | 98.6 ± 1.17 µM | 41.8% | 22.1 ± 1.63 µM | 32.2% | 23% |  |  |  |  |  | 
4 | PARDVLNTTSG-NH2 [P264-G274, PARDVLNTTSG-NH2] | 90.98 ± 0.75 µM | 41.6% | 11.3 ± 0.52 µM | 16.5% | 12.2% |  |  |  |  |  | 
5 | TYFNAVKPPITA-NH2 [Loop2-PS2Aa, TYFNAVKPPITA-NH2] | 93 ± 0.98 µM | 39.5% | 16 ± 0.69 µM | 24.1% | 9.4% |  |  |  |  |  | 
6 | NNETYFNAVKP-NH2 [Loop1-PS2Aa, NNETYFNAVKP-NH2] | 23.8 ± 1.25 µM | 16% | 106 ± 1.67 µM | 46.8% | 18.1% |  |  |  |  |  | 
